Experimental data: patent publication US11236088B2, “Heterocyclic compounds and their application in medicine” (KIND PHARMACEUTICAL, priority 2017, dated 2022)

tested on: MCF-7 cells; assay: Inhibitory effect on the growth of MCF-7 cells (CellTiter-Glo, 10 days); assay type: cell-based; conditions: Homo sapiens, MCF7, 240 h, 10 days incubation, CellTiter-Glo chemiluminescence
Method: Assay 2: Inhibitory effect of compounds of the present invention on the growth of MCF-7 cells by a cell drug inhibition experiment
1. Experimental Materials
1) Reagents: DMEM high glucose medium (Lonza #12-604F), FBS (BI #04-00F1ACS), antibiotics (Thermofisher #15070063), bovine insulin (Western reagent #11070-73-8), trypsin (Thermofisher #25200-056), CellTiter-Glo reagent (Promega #G7571)
2) Instruments: American MD-M5 microplate reader 5;
2. Experimental Procedures:
1) 100 μl of MCF-7 cells was added to a medium in a white opaque 96-well plate at a density of 5000 cells/ml in which the medium is DMEM high-glucose medium supplemented with 10% FBS. The cells were cultured in a 5% CO2 cell incubator at 37° C. for 24 hours.
2) Different concentrations of corresponding compounds were added to the 96-well plate for incubating MCF-7 cells. The cells were incubated for 10 days in a 5% CO2 cell incubator.
3) To each well of MCF-7 cells, 100 μl of CellTiter-Glo reagent was added and then set aside at room temperature for 10 minutes. The chemiluminescence signal was read using an MD-M5 microplate reader, and the data was processed using GraphPad Prism to calculate IC50 value.

Row | IC50 | Compound
1 | > 1 µM | CCCCN1CC(Oc2cc(F)c([C@@H]3c4ccc5[nH]ncc5c4CN(C)[C@H]3CC3CC3)c(F)c2)C1 [Example 23, (6S, 7S)-6-(4-((1-butylazetidin-3-yl)oxy)-2,6-difluorophenyl)-7-cyclopropylmethyl-8-methyl-6,7,8,9-tetrahydro-3H-pyrazolo [3,4-h]isoquinoline]
2 | > 1 µM | CCCCCN1CC(Oc2cc(F)c([C@@H]3c4ccc5[nH]ncc5c4CN(C)[C@H]3CC3CC3)c(F)c2)C1 [Example 24, (6S, 7S)-7-cyclopropylmethyl-6-(2,6-difluoro-4-((1-pentylazetidin-3-yl)oxy)phenyl)-8-methyl-6,7,8,9-tetrahydro-3H-pyrazolo [3,4-h]isoquinoline]
3 | 0.01 to 1 µM | CN1Cc2c(ccc3[nH]ncc23)[C@@H](c2c(F)cc(SC3CN(CCCF)C3)cc2F)[C@@H]1CC1CC1 [Example 25]
4 | 0.01 to 1 µM | CCCN1CC(Sc2cc(F)c([C@@H]3c4ccc5[nH]ncc5c4CN(C)[C@H]3CC3CC3)c(F)c2)C1 [Example 26, (6S, 7S)-7-cyclopropylmethyl-6-(2,6-difluoro-4-((1-propylazetidin-3-yl)thio)phenyl)-8-methyl-6,7,8,9-tetrahydro-3H-pyrazolo [3,4-h]isoquinoline]
5 | > 1 µM | CCCCN1CC(Sc2cc(F)c([C@@H]3c4ccc5[nH]ncc5c4CN(C)[C@H]3CC3CC3)c(F)c2)C1 [Example 27, (6S, 7S)-6-(4-((1-butylazetidin-3-yl)thio)-2,6-difluorophenyl)-7-cyclopropylmethyl-8-methyl-6,7,8,9-tetrahydro-3H-pyrazolo [3,4-h]isoquinoline]
6 | > 1 µM | CC(C)CN1CC(Sc2cc(F)c([C@@H]3c4ccc5[nH]ncc5c4CN(C)[C@H]3CC3CC3)c(F)c2)C1 [Example 28, (6S, 7S)-6-(4-((1-isobutylazetidin-3-yl)thio)-2,6-difluorophenyl)-7-cyclopropylmethyl-8-methyl-6,7,8,9-tetrahydro-3H-pyrazolo [3,4-h]isoquinoline]
7 | > 1 µM | CCCCCN1CC(Sc2cc(F)c([C@@H]3c4ccc5[nH]ncc5c4CN(C)[C@H]3CC3CC3)c(F)c2)C1 [Example 29, (6S, 7S)-7-cyclopropylmethyl-6-(2,6-difluoro-4-((1-pentylazetidin-3-yl)thio)phenyl)-8-methyl-6,7,8,9-tetrahydro-3H-pyrazolo [3,4-h]isoquinoline]
8 | ≤ 0.001 µM | CC(C)C[C@H]1[C@H](c2c(F)cc(OC3CN(C=O)C3)cc2F)c2ccc3[nH]ncc3c2CN1C [Example 30, 3-(3,5-difluoro-4-((6S, 7S)-7-isobutyl-8-methyl-6,7,8,9-tetrahydro-3H-pyrazolo [3,4-h]isoquinolin-6-yl)phenoxy) azetidin-1-aldehyde]
9 | ≤ 0.001 µM | CC(=O)N1CC(Oc2cc(F)c([C@@H]3c4ccc5[nH]ncc5c4CN(C)[C@H]3CC(C)C)c(F)c2)C1 [Example 31, 1-(3-(3,5-difluoro-4-((6S, 7S)-7-isobutyl-8-methyl-6,7,8,9-tetrahydro-3H-pyrazolo [3,4-h]isoquinolin-6-yl)phenoxy)azetidin-1-yl) ethan-1-one]
10 | ≤ 0.001 µM | CCC(=O)N1CC(Oc2cc(F)c([C@@H]3c4ccc5[nH]ncc5c4CN(C)[C@H]3CC(C)C)c(F)c2)C1 [Example 32, 1-(3-(3,5-difluoro-4-((6S, 7S)-7-isobutyl-8-methyl-6,7,8,9-tetrahydro-3H-pyrazolo [3,4-h]isoquinolin-6-yl)phenoxy)azetidin-1-yl) propan-1-one]
11 | 0.01 to 1 µM | CCCC(=O)N1CC(Oc2cc(F)c([C@@H]3c4ccc5[nH]ncc5c4CN(C)[C@H]3CC(C)C)c(F)c2)C1 [Example 33, 1-(3-(3,5-difluoro-4-((6S, 7S)-7-isobutyl-8-methyl-6,7,8,9-tetrahydro-3H-pyrazolo [3,4-h]isoquinolin-6-yl)phenoxy)azetidin-1-yl) butan-1-one]
12 | 0.001 to 0.01 µM | CC(C)C[C@H]1[C@H](c2c(F)cc(OC3CN(C(=O)C(C)C)C3)cc2F)c2ccc3[nH]ncc3c2CN1C [Example 34, 1-(3-(3,5-difluoro-4-((6S, 7S)-7-isobutyl-8-methyl-6,7,8,9-tetrahydro-3H-pyrazolo [3,4-h]isoquinolin-6-yl)phenoxy)azetidin-1-yl)-2-methylpropan-1-one]
13 | 0.01 to 1 µM | C[C@]12CC[C@@H]3c4ccc(O)cc4C[C@@H](CCCCCCCCC[S+]([O-])CCCC(F)(F)C(F)(F)F)[C@H]3[C@@H]1CC[C@@H]2O (stereo partly shown) [Fulvestrant, reference compound]
